Measured values published in ChEMBL document CHEMBL4507270 (2021).

Tests used:
[1] = biological target: Transient receptor potential cation channel subfamily M member 6 (Homo sapiens) (UniProt Q9BX84)
[2] = biological target: Histamine H2 receptor (Homo sapiens) (UniProt P25021); settings: Compound concentration 10.0 uM
[3] = biological target: Kappa-type opioid receptor (Homo sapiens, UniProt P41145); assay: GPCRScan assay: inhibition of KOR; set-up: radioligand conc. used [nm] 0.6 – 1.2, parental cells stable HEK
Chain of Kappa-type opioid receptor (P41145 whole entry): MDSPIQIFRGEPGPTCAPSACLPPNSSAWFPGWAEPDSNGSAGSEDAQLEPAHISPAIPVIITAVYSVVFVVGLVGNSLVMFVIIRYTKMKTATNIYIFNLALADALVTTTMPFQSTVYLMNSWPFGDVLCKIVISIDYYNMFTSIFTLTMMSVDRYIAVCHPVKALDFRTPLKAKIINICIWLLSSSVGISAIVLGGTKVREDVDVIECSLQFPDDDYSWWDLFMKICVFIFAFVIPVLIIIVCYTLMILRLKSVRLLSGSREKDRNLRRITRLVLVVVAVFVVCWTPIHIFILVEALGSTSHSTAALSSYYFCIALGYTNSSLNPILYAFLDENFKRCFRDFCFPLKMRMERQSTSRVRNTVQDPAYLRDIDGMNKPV

[4] = biological target: Dual specificity tyrosine-phosphorylation-regulated kinase 1A (Homo sapiens) (UniProt Q13627)
[5] = biological target: Mitotic checkpoint serine/threonine-protein kinase BUB1 (Homo sapiens) (UniProt O43683)
[6] = biological target: Alpha-2B adrenergic receptor (Homo sapiens) (UniProt P18089); settings: Compound concentration 10.0 uM
[7] = biological target: Serine/threonine-protein kinase 33 (Homo sapiens) (UniProt Q9BYT3)
[8] = biological target: Serine/threonine-protein kinase SBK1 (Homo sapiens) (UniProt Q52WX2)
Chain of Serine/threonine-protein kinase SBK1 (Homo sapiens) (Q52WX2 whole entry): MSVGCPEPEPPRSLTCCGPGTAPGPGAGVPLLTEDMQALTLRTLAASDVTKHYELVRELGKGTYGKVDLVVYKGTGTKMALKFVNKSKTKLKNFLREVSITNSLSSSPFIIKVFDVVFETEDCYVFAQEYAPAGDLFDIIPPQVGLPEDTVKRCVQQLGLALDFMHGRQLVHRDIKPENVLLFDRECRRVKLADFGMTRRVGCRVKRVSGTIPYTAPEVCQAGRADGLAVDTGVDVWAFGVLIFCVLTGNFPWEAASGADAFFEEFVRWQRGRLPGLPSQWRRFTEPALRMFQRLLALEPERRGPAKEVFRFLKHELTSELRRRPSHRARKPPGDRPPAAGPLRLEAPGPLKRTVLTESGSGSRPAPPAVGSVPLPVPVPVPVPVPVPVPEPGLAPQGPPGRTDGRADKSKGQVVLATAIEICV

[9] = biological target: Mitogen-activated protein kinase kinase kinase 11 (Homo sapiens) (UniProt Q16584)
[10] = biological target: Phosphatidylinositol 4,5-bisphosphate 3-kinase catalytic subunit delta isoform (Homo sapiens) (UniProt O00329)
[11] = biological target: Mitogen-activated protein kinase 11 (Homo sapiens) (UniProt Q15759)
[12] = biological target: Beta-2 adrenergic receptor (Homo sapiens) (UniProt P07550); settings: Compound concentration 10.0 uM
Chain of Beta-2 adrenergic receptor (Homo sapiens) (P07550 whole entry, looked up): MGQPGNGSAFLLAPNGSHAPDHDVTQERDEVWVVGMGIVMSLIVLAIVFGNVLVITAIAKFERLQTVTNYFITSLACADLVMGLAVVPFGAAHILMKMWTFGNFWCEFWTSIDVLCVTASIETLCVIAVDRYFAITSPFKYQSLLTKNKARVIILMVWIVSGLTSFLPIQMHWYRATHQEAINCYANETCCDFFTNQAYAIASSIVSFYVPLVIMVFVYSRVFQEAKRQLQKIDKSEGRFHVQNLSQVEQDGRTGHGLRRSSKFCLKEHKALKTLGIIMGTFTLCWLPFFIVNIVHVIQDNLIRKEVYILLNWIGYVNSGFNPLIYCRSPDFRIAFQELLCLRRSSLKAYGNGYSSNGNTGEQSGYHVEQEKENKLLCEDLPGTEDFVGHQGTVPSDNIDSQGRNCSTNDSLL

[13] = biological target: Serine/threonine-protein kinase TAO1 (Homo sapiens) (UniProt Q7L7X3)
[14] = test system: Fibroblast growth factor receptor 3 (Homo sapiens), P22607 [G697C]
[15] = test system: Tyrosine-protein kinase ABL1 (Homo sapiens), P00519 [H396P]
[16] = biological target: Serine/threonine-protein kinase 3 (Homo sapiens) (UniProt Q13188)
Chain of Serine/threonine-protein kinase 3 (Homo sapiens) (Q13188 whole entry): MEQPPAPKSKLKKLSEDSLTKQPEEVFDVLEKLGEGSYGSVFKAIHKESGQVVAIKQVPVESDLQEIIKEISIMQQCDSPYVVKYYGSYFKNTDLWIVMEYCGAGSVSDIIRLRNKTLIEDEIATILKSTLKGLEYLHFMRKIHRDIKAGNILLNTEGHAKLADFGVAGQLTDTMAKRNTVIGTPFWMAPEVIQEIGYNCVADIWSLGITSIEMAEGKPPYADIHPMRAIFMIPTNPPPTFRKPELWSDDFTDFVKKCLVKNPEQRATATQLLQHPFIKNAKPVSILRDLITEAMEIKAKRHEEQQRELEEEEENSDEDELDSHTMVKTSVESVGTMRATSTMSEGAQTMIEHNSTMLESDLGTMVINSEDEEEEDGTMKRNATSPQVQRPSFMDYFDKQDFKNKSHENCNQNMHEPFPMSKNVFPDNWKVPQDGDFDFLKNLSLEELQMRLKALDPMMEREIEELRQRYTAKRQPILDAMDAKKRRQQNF

[17] = biological target: Sigma intracellular receptor 2 (Homo sapiens, UniProt Q5BJF2); assay: GPCRScan assay: inhibition of Sigma 2; set-up: radioligand conc. used [nm] 5.0, parental cells HEKT
Chain of Sigma intracellular receptor 2 (Q5BJF2 whole entry): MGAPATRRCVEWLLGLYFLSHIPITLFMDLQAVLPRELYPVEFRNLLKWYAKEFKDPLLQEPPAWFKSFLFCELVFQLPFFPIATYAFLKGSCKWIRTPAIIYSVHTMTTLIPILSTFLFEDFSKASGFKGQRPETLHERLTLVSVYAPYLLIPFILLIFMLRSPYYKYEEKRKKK

[18] = biological target: Tyrosine-protein kinase FRK (Homo sapiens) (UniProt P42685)
[19] = biological target: Fibroblast growth factor receptor 1 (Homo sapiens, UniProt P11362)
[20] = biological target: Serine/threonine-protein kinase D1 (Homo sapiens) (UniProt Q15139)
[21] = biological target: Serine/threonine-protein kinase MAK (Homo sapiens) (UniProt P20794)
[22] = test system: Proto-oncogene tyrosine-protein kinase receptor Ret (Homo sapiens), P07949 [V804M]
[23] = biological target: Homeodomain-interacting protein kinase 3 (Homo sapiens) (UniProt Q9H422)
[24] = biological target: Phosphatidylinositol 4-phosphate 5-kinase type-1 alpha (Homo sapiens) (UniProt Q99755)
[25] = biological target: Cyclin-dependent kinase 19 (Homo sapiens) (UniProt Q9BWU1)
[26] = biological target: Activin receptor type-1B (Homo sapiens) (UniProt P36896)
[27] = test system: Phosphatidylinositol 4,5-bisphosphate 3-kinase catalytic subunit alpha isoform (Homo sapiens), P42336 [H1047L]
[28] = biological target: Mitogen-activated protein kinase 3 (Homo sapiens) (UniProt P27361)
[29] = biological target: Mast/stem cell growth factor receptor Kit (Homo sapiens) (UniProt P10721)
Chain of Mast/stem cell growth factor receptor Kit (Homo sapiens) (P10721 whole entry): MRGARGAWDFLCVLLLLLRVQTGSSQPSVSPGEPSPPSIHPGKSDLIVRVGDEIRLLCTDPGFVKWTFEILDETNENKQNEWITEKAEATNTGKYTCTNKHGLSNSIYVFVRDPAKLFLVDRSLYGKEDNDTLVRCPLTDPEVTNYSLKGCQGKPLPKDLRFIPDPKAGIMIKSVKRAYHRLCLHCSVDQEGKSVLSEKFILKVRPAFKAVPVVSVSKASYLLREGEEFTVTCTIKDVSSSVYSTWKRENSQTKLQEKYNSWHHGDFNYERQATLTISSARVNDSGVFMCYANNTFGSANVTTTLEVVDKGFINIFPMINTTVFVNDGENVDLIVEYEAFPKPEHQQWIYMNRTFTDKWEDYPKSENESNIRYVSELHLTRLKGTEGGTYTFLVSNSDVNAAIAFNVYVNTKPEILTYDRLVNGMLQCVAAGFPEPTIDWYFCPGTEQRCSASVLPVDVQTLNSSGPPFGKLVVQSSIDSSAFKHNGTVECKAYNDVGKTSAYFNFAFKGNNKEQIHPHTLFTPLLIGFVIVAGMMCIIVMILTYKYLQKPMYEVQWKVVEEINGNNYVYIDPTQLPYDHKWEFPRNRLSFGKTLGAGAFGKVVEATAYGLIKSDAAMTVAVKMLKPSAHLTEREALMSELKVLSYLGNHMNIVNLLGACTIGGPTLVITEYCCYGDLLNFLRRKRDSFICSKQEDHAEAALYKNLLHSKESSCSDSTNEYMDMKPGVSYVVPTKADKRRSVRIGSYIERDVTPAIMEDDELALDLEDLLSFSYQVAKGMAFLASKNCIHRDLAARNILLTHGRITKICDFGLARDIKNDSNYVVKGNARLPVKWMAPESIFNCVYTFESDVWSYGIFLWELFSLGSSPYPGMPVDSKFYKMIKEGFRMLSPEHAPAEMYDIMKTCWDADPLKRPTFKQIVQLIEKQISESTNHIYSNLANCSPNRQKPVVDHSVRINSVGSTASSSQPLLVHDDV

[30] = biological target: Receptor tyrosine-protein kinase erbB-4 (Homo sapiens) (UniProt Q15303)
[31] = biological target: Protein kinase C epsilon type (Homo sapiens) (UniProt Q02156)
[32] = biological target: Mitogen-activated protein kinase 10 (Homo sapiens) (UniProt P53779)
[33] = biological target: Myosin-IIIb (Homo sapiens) (UniProt Q8WXR4)
Chain of Myosin-IIIb (Homo sapiens) (Q8WXR4 whole entry): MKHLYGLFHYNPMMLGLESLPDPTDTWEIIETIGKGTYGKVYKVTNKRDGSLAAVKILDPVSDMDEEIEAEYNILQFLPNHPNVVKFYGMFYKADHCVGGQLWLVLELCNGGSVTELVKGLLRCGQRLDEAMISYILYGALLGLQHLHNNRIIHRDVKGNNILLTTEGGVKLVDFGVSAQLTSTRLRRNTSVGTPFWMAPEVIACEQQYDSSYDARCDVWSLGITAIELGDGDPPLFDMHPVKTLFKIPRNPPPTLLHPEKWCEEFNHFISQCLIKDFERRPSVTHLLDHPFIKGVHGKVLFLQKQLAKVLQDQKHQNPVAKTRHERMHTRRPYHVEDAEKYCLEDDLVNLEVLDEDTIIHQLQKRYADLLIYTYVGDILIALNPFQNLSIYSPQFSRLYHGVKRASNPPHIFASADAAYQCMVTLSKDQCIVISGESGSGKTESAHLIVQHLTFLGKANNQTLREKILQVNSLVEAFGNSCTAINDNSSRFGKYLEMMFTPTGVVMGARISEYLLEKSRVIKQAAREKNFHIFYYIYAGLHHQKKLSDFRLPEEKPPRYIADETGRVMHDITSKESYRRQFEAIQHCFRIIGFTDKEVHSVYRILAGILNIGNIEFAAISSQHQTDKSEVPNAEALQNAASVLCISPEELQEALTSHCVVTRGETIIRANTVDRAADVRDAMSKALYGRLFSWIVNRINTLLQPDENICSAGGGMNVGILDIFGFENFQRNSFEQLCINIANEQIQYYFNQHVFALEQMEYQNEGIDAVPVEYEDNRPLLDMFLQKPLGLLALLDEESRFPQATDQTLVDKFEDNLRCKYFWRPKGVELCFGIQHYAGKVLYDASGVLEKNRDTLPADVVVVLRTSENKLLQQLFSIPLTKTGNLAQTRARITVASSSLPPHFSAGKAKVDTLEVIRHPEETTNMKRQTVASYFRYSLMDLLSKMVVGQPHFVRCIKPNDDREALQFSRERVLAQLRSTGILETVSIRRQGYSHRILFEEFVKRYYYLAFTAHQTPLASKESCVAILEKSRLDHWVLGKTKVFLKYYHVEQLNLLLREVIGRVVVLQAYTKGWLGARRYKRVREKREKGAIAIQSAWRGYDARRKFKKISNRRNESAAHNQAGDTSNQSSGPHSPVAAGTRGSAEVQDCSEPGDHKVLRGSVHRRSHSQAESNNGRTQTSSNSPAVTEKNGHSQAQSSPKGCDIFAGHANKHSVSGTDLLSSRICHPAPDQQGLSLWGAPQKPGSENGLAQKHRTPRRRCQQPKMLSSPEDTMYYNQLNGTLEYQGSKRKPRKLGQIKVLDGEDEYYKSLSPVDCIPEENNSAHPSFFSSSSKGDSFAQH

[34] = biological target: Tyrosine-protein kinase ABL1 (Homo sapiens) (UniProt P00519)
[35] = biological target: Serine/threonine-protein kinase Nek5 (Homo sapiens) (UniProt Q6P3R8)
[36] = test system: Mast/stem cell growth factor receptor Kit (Homo sapiens), P10721 [V559D,V654A]
Chain of Mast/stem cell growth factor receptor Kit (Homo sapiens), P10721 [V559D,V654A] (P10721 whole entry V559D/V654A): as the sequence (P10721 whole entry) above, with V559D, V654A counted along it

[37] = biological target: Serine/threonine-protein kinase 17A (Homo sapiens) (UniProt Q9UEE5)
[38] = biological target: Mitogen-activated protein kinase 1 (Homo sapiens) (UniProt P28482)
[39] = biological target: Dual specificity protein kinase CLK4 (Homo sapiens) (UniProt Q9HAZ1)
[40] = biological target: Rhodopsin kinase GRK7 (Homo sapiens) (UniProt Q8WTQ7)
[41] = biological target: TGF-beta receptor type-2 (Homo sapiens) (UniProt P37173)
[42] = biological target: Ribosomal protein S6 kinase alpha-5 (Homo sapiens) (UniProt O75582)
Chain of Ribosomal protein S6 kinase alpha-5 (Homo sapiens) (O75582 whole entry, looked up): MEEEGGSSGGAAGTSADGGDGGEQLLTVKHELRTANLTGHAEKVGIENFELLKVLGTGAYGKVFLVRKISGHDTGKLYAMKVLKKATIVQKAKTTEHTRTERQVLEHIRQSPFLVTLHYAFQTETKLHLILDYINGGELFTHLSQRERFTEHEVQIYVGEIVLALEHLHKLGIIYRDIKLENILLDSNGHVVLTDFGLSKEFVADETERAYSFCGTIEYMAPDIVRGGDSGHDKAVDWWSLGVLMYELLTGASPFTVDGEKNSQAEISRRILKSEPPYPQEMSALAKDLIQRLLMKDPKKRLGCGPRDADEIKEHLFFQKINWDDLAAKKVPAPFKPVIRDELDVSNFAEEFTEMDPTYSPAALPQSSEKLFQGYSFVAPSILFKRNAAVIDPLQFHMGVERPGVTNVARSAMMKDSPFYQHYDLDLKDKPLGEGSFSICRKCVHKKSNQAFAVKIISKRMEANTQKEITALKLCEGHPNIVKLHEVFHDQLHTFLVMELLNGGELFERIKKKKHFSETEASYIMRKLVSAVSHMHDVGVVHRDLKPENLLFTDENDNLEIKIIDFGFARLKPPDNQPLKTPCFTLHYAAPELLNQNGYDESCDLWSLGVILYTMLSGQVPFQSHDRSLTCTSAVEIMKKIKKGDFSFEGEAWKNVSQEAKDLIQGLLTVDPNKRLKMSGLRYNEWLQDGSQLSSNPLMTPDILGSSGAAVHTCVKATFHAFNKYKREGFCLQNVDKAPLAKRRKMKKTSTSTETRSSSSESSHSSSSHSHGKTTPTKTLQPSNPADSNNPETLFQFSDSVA

[43] = biological target: Bone morphogenetic protein receptor type-1B (Homo sapiens) (UniProt O00238)
[44] = test system: Tyrosine-protein kinase ABL1 (Homo sapiens), P00519 [Q252H]
[45] = test system: Proto-oncogene tyrosine-protein kinase receptor Ret (Homo sapiens), P07949 [V804L]
[46] = Compound concentration 1000.0 nM
[47] = Compound concentration 100.0 nM

With `Cc1cc(NC(=O)c2cccc(S(F)(F)(F)(F)F)c2)cc(-n2ccn3nc(-c4cccnc4)cc23)c1` [BAY-309] as the molecule, how does the residual activity [1, 46] read?
Its residual activity is 97%.

What about the inhibition [2] of the same molecule?
Its inhibition is 46.1%.

And the Ki ([3]; read-out: Ki)?
The Ki was 10000 nM.

What about the residual activity [4, 46] of the same molecule?
The residual activity was 100%.

And the residual activity [5, 46]?
The residual activity was 100%.

And the inhibition [6]?
The inhibition was 11.9%.

And the residual activity [7, 46]?
The residual activity was 87.8%.

What about the residual activity [8, 46] of the same molecule?
The residual activity was 100%.

And the residual activity [9, 46]?
The residual activity was 100%.

What about the residual activity [10, 46] of the same molecule?
The residual activity was 100%.

What about the residual activity [11, 46] of the same molecule?
The residual activity was 98.1%.

What about the inhibition [12] of the same molecule?
Its inhibition is -7.8%.

What about the residual activity [13, 46] of the same molecule?
The residual activity was 100%.

And the residual activity [14, 46]?
The residual activity was 100%.

And the residual activity [15, 46]?
The residual activity was 66.9%.

And the residual activity [16, 46]?
The residual activity was 100%.

What about the Ki ([17]; read-out: Ki) of the same molecule?
Its Ki is 796 nM.

What about the Ki ([17]; read-out: pKi (converted)) of the same molecule?
The Ki was 789 nM.

What about the residual activity [18, 46] of the same molecule?
Its residual activity is 100%.

What about the residual activity [19, 46] of the same molecule?
Its residual activity is 100%.

And the residual activity [20, 46]?
The residual activity was 100%.

And the residual activity [21, 46]?
Its residual activity is 100%.

What about the residual activity [22, 46] of the same molecule?
Its residual activity is 74.2%.

And the residual activity [23, 46]?
Its residual activity is 88.8%.

What about the residual activity [24, 46] of the same molecule?
Its residual activity is 100%.

What about the residual activity [25, 46] of the same molecule?
Its residual activity is 84.1%.

What about the residual activity [26, 46] of the same molecule?
The residual activity was 100%.

What about the residual activity [27, 46] of the same molecule?
Its residual activity is 100%.

And the residual activity [28, 46]?
The residual activity was 86.8%.

What about the residual activity [29, 46] of the same molecule?
Its residual activity is 70.3%.

What about the residual activity [30, 46] of the same molecule?
Its residual activity is 98.1%.

And the residual activity [31, 46]?
Its residual activity is 91.2%.

What about the residual activity [32, 46] of the same molecule?
The residual activity was 64.9%.

And the residual activity [33, 46]?
Its residual activity is 73.8%.

What about the residual activity [34, 46] of the same molecule?
Its residual activity is 52.2%.

What about the residual activity [35, 46] of the same molecule?
The residual activity was 86.8%.

What about the residual activity [36, 46] of the same molecule?
The residual activity was 100%.

What about the residual activity [37, 46] of the same molecule?
The residual activity was 100%.

And the residual activity [38, 46]?
The residual activity was 61.7%.

What about the residual activity [39, 46] of the same molecule?
The residual activity was 100%.

And the residual activity [40, 46]?
The residual activity was 100%.

And the residual activity [41, 46]?
Its residual activity is 94.5%.

And the residual activity [42, 46]?
The residual activity was 100%.

What about the residual activity [43, 46] of the same molecule?
The residual activity was 100%.

What about the residual activity [44, 46] of the same molecule?
The residual activity was 100%.

What about the residual activity [45, 46] of the same molecule?
Its residual activity is 100%.

How did the residual activity [1, 47] turn out when `Cc1cc(C)c(-n2ccn3nc(-c4cccnc4)cc23)cc1NC(=O)c1cc(C#N)cc(S(F)(F)(F)(F)F)c1` [BAY-826] was run?
The residual activity was 80.2%.

And the inhibition [2]?
The inhibition was 25.6%.

What about the Ki ([3]; read-out: Ki) of the same molecule?
The Ki was 125 nM.

What about the Ki ([3]; read-out: pKi (converted)) of the same molecule?
The Ki was 112 nM.

And the residual activity [4, 47]?
The residual activity was 82.8%.

What about the residual activity [5, 47] of the same molecule?
Its residual activity is 99.8%.

And the inhibition [6]?
The inhibition was 18.1%.

And the residual activity [7, 47]?
Its residual activity is 100%.

And the residual activity [8, 47]?
The residual activity was 82.2%.

What about the residual activity [9, 47] of the same molecule?
Its residual activity is 100%.

And the residual activity [10, 47]?
The residual activity was 76.9%.

What about the residual activity [11, 47] of the same molecule?
Its residual activity is 93.4%.

And the inhibition [12]?
The inhibition was 25.6%.

And the residual activity [13, 47]?
The residual activity was 45.2%.

What about the residual activity [14, 47] of the same molecule?
Its residual activity is 100%.

What about the residual activity [15, 47] of the same molecule?
Its residual activity is 69%.

And the residual activity [16, 47]?
Its residual activity is 85.4%.

What about the Ki ([17]; read-out: Ki) of the same molecule?
Its Ki is 984 nM.

And the Ki ([17]; read-out: pKi (converted))?
Its Ki is 955 nM.

And the residual activity [18, 47]?
The residual activity was 59.1%.

What about the residual activity [19, 47] of the same molecule?
Its residual activity is 85.5%.

And the residual activity [20, 47]?
The residual activity was 81.2%.

What about the residual activity [21, 47] of the same molecule?
Its residual activity is 77.2%.

And the residual activity [22, 47]?
The residual activity was 94.5%.

What about the residual activity [23, 47] of the same molecule?
Its residual activity is 80.7%.

What about the residual activity [24, 47] of the same molecule?
Its residual activity is 95%.

What about the residual activity [25, 47] of the same molecule?
The residual activity was 90.7%.

And the residual activity [26, 47]?
The residual activity was 100%.

What about the residual activity [27, 47] of the same molecule?
Its residual activity is 82.7%.

And the residual activity [28, 47]?
Its residual activity is 95.2%.

And the residual activity [29, 47]?
Its residual activity is 76.8%.

And the residual activity [30, 47]?
The residual activity was 96.3%.

What about the residual activity [31, 47] of the same molecule?
Its residual activity is 100%.

And the residual activity [32, 47]?
The residual activity was 100%.

And the residual activity [33, 47]?
The residual activity was 82.4%.

What about the residual activity [34, 47] of the same molecule?
Its residual activity is 29.2%.

What about the residual activity [35, 47] of the same molecule?
Its residual activity is 87.8%.

What about the residual activity [36, 47] of the same molecule?
Its residual activity is 89.4%.

And the residual activity [37, 47]?
Its residual activity is 100%.

And the residual activity [38, 47]?
The residual activity was 88.1%.

What about the residual activity [39, 47] of the same molecule?
Its residual activity is 93.3%.

And the residual activity [40, 47]?
Its residual activity is 65.6%.

What about the residual activity [41, 47] of the same molecule?
Its residual activity is 78.6%.

What about the residual activity [42, 47] of the same molecule?
Its residual activity is 100%.

What about the residual activity [43, 47] of the same molecule?
The residual activity was 72.3%.

What about the residual activity [44, 47] of the same molecule?
Its residual activity is 72.9%.

And the residual activity [45, 47]?
The residual activity was 93.6%.
